Test results from PMC12329534, “Sal is a proteobacterial bile acid aldolase that repurposes key thiolase catalytic residues for retroaldol cleavage of C5 steroid side chains” (The Journal of Biological Chemistry, 2025).

Legend:
[1] = target: T1, CtShy–CtSal complex (CtShy steroid hydratase activity) (Comamonas testosteroni, UniProt B7X4S7); test: LC-MS/MS of products; Hsd4A-coupled NADH end point; type: biochemical; conditions: 50 mM ammonium acetate pH 7.4 (LC-MS) or 100 mM HEPES pH 7.5, 25 °C; NAD+ and excess Hsd4A
T1 construct: gene CtesDRAFT_PD3653; full-length CtShy–CtSal complex from E. coli BL21 LOBSTR, His-tag purified; MaoC domain of CtShy is the hydratase domain; with Steroid aldolase Sal (thiolase-like protein)
T1 sequence (B7X4S7 1-312): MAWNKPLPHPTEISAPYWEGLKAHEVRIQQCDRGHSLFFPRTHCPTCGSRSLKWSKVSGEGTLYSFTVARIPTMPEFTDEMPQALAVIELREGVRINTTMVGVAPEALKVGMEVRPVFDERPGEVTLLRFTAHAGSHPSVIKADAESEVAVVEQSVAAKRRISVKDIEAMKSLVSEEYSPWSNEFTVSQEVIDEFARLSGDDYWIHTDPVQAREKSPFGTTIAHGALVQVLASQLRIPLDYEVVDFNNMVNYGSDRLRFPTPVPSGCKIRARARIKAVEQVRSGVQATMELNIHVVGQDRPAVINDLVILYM

[2] = target: T2, 17-β-hydroxysteroid dehydrogenase (Hsd4A) (Rhodococcus jostii, UniProt Q0S7K5); test: LC-MS/MS of product; NADH formation at […] nm; type: biochemical; conditions: 1 mM NAD+; substrate made in situ from cholyl-enoyl-CoA by CtShy–CtSal; 100 mM HEPES pH 7.5, 25 °C or 50 mM ammonium acetate pH 7.4
T2 construct: isolated enzyme; construct not described in main text
T2 sequence (Q0S7K5 1-305): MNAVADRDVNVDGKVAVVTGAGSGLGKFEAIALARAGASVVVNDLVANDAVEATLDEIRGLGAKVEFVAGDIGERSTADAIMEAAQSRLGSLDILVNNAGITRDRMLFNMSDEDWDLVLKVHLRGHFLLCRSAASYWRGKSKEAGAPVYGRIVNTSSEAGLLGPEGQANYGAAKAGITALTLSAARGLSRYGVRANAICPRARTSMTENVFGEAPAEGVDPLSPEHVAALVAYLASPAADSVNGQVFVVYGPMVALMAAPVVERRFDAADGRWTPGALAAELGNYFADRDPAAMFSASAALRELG

[3] = target: T3, CtShy–CtSal complex (CtSal steroid aldolase activity) (Comamonas testosteroni, UniProt B7X4S8); test: CtSad-coupled NADH formation at […] nm; type: biochemical; conditions: apparent; 1 mM NAD+ and 7 nM CtSad for coupling, 100 mM HEPES pH 7.5, 25 °C
T3 construct: gene CtesDRAFT_PD3654; full-length CtShy–CtSal complex co-expressed in E. coli BL21 LOBSTR, His-tag purified; heterotetramer, 160 kDa by SEC (CtShy 35 kDa, CtSal 46 kDa); with Steroid hydratase Shy (DUF35/OB-fold and MaoC domain-containing protein)
T3 sequence (B7X4S8 1-404): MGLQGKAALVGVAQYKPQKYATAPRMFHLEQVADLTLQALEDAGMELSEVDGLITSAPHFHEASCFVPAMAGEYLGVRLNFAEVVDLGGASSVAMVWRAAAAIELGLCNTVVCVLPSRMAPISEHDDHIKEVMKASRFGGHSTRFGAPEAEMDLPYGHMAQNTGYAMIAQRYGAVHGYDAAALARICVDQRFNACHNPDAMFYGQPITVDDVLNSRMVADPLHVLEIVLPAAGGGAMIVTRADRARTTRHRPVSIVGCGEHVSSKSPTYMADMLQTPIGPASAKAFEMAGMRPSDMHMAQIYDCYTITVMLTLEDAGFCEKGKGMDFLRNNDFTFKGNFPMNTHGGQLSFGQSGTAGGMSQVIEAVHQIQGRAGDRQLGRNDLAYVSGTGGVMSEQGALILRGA
T3 sequence (B7X4S7 1-312 partner): T1 sequence (B7X4S7 1-312)

[4] = system: T4, C[C@H](C(O)CC(=O)SCCNC(=O)CCNC(=O)[C@H](O)C(C)(C)COP(=O)(O)OP(=O)(O)OC[C@H]1O[C@@H](n2cnc3c(N)ncnc32)[C@H](O)[C@@H]1OP(=O)(O)O)[C@H]1CC[C@H]2[C@@H]3[C@H](O)C[C@@H]4C[C@H](O)CC[C@]4(C)[C@H]3C[C@H](O)[C@]12C; test: purified protein; type: biochemical, Comamonas testosteroni; conditions: apparent, 1 mM NAD+ and 7 nM CtSad for coupling, 100 mM HEPES pH 7.5, 25 °C
T4 construct: full-length CtShy–CtSal complex co-expressed in E. coli BL21 LOBSTR, His-tag purified; heterotetramer, 160 kDa by SEC (CtShy 35 kDa, CtSal 46 kDa); with Steroid hydratase Shy (DUF35/OB-fold and MaoC domain-containing protein)

Molecule: C[C@H](/C=C/C(=O)SCCNC(=O)CCNC(=O)[C@H](O)C(C)(C)COP(=O)(O)OP(=O)(O)OC[C@H]1O[C@@H](n2cnc3c(N)ncnc32)[C@H](O)[C@@H]1OP(=O)(O)O)[C@H]1CC[C@H]2[C@@H]3[C@H](O)C[C@@H]4C[C@H](O)CC[C@]4(C)[C@H]3C[C@H](O)[C@]12C [cholyl-enoyl-CoA]
- LC-MS/MS of products; Hsd4A-coupled NADH end point [1]: Hsd4A effectively sequestered the CtShy product to form cholyl-22-oxo-CoA

Molecule: C[C@H](C(O)CC(=O)SCCNC(=O)CCNC(=O)[C@H](O)C(C)(C)COP(=O)(O)OP(=O)(O)OC[C@H]1O[C@@H](n2cnc3c(N)ncnc32)[C@H](O)[C@@H]1OP(=O)(O)O)[C@H]1CC[C@H]2[C@@H]3[C@H](O)C[C@@H]4C[C@H](O)CC[C@]4(C)[C@H]3C[C@H](O)[C@]12C (stereo partly drawn) [Cholyl-22-OH-CoA]
- LC-MS/MS of product; NADH formation at 340 nm [2]: Hsd4A effectively sequestered the CtShy product to form cholyl-22-oxo-CoA
- Km [3]: 8.12 ± 0.477 µM

Molecule: CtShy–CtSal complex (CtSal steroid aldolase activity) (Comamonas testosteroni KF-1; R216A)
- Km [4]: 41.4 ± 1.29 µM
- kcat [4]: 11.6 ± 0.15 s⁻¹
- kcat/Km [4]: 281000 ± 876 M⁻¹ s⁻¹
